Literature values in US20090304794A1, “CONTROLLED RELEASE FORMULATIONS OF PRAMIPEXOLE” (Supernus Pharmaceuticals, Inc., priority 2008, published 2009).
Where two headings read alike, the source gives them in different places.

terminal elimination half-life (elderly volunteers): about 12 hours
lower clearance rate in females than males (females versus males): 30%
terminal elimination half-life (healthy volunteers): about 8 hours
absolute bioavailability (BA) (in vivo): greater than 90%
Compound: CCCN[C@H]1CCc2nc(N)sc2C1 [pramipexole]
